Assay [1] has as its target μ-opioid receptor (Rattus norvegicus, UniProt P33535). The assay is described as follows: Rat brain μ-opioid receptor binding assay ([3H]DAMGO).
In assay [2] the target is T1, δ-opioid receptor (Homo sapiens, UniProt P41143).
T1 construct: purchased Receptor Biology, Baltimore, Md; host or cells: CHO cells (membranes)
As to the kind of experiment: Scintillation screening assay for δ-opioid receptor binding ([3H]bremazocine). To be noted: cloned human receptor in CHO cell membranes, [3H]bremazocine 2.4 nM; for inhibition at 25 µM: read-out: δ-Opioid Receptor Binding (% Inhibition), % I @ 25 μM. From the text:
Scintillation Screening Assay for δ-Opioid Receptor Binding
This is a receptor based screen to detect the competitive binding of test compounds at the δ-opioid receptor against the radioligand, [^3H]bremazocine (S.A.=25.5 Cl/mmol, Dupont/NEN, Cambridge, Mass.). Unknown compounds that bind to the same receptor as the radioligand will compete for the receptor and reduce the amount of radioligand which binds to the receptor. This is detected as a decreased scintillation signal from that particular incubation. The greater affinity an unknown has for the receptor, the larger the observed decrease in […] to the receptor; thus the assay is in the format of an inhibition study.
The receptor is a cloned human cDNA expressed in mammalian CHO cells. Membranes prepared from these cells are purchased from Receptor Biology, Baltimore, Md. The reaction buffer is composed as follows: HEPES (50 mM final), MgCl.6H2O (5 mM final), o-phenanthroline (20 mg/l), aprotinin (10 mg/l), Pefabloc SC (250 mg/l), leupeptin (0.5 mg/l), pepstatin A (0.7 mg/l), trypsin inhibitor (25 mg/l), chymostatin (10 mg/l), pH=7.2. Naloxone, 10 uM, is used to define non-specific binding. The assay employs filtration to capture receptor and bound ligand.
The receptor (membrane) preparation (28 ug protein) is allowed to incubate with the opioid receptor radioligand ([^3H]bremazocine, 2.4 nM) in 96-well plates until equilibrium is reached (>2 hr). Following incubation with the radioligand at 23° C., the well contents are filtered onto 96-well Whatman GF/C filter plates using a Packard cell harvester. Radioligand bound to the receptor also remains on the filter. The filters are rinsed three times with 0.5 mL of physiological saline (0.9% NaCl) to remove any unbound radioligand from the filter. Filters are dried and scintillation fluid is then added to the filters which emits light in proportion to the amount of radioactivity on the filter which is determined using an Packard Topcount scintillation counter. Data are reported as percent inhibition of control binding.

The target in assay [3] is δ-opioid receptor (Rattus norvegicus, UniProt P33533). As to the kind of experiment: Rat brain δ-opioid receptor binding assay ([3H]DPDPE).
Setting [4] is: rat forebrain preparation, [3H]DAMGO, 25° C., read-out: μ-Opioid Receptor Binding (Ki nM).
[5] abbreviates: rat forebrain preparation, [3H]DPDPE, 25° C., read-out: δ-Opioid Receptor Binding (Ki nM).

The results in this text go back to patent publication US6887876B2, “Benzamidine derivatives” (Ortho-McNeil Pharmaceutical, Inc., priority 2000, dated 2005).

Where two headings read alike, the source gives them in different places.

Usually Ki stands for a dissociation constant, usually derived from enzyme kinetics or from competition with a known ligand. Usually inhibition stands for the change of the read-out against control, counted positive when it falls.

Sequence of δ-opioid receptor (Rattus norvegicus, UniProt P33533) (P33533 whole entry): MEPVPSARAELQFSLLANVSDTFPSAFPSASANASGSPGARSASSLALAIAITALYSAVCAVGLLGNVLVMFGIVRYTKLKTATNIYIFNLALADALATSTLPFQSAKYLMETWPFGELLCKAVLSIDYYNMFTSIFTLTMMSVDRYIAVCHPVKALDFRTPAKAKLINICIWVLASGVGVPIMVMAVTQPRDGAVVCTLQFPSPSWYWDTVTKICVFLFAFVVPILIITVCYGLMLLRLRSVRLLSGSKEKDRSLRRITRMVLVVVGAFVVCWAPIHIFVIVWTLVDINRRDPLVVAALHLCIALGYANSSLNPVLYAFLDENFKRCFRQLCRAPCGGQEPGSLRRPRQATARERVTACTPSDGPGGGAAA
T1 sequence (P41143 whole entry): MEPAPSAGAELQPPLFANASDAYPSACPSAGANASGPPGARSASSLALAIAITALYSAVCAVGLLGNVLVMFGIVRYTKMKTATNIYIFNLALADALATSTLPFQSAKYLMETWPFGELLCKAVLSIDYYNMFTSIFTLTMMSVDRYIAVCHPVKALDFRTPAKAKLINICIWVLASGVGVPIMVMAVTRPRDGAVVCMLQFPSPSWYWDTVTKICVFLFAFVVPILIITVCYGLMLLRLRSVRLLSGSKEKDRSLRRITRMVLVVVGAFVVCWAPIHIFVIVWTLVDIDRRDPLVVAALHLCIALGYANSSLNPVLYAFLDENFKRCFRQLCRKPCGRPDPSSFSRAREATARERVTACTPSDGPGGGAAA
Sequence of μ-opioid receptor (P33535 whole entry): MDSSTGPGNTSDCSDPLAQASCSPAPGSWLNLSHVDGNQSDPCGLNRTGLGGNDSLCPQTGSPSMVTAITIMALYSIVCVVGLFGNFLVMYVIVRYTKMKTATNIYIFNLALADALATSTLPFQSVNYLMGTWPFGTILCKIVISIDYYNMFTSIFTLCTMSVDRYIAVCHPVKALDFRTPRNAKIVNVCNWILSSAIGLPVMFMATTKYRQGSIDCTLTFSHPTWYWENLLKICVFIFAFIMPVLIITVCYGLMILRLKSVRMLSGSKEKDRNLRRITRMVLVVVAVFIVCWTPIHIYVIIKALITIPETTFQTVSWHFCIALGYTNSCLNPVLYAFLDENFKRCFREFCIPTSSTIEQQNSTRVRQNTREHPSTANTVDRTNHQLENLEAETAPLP

For the compound `CCN1CCN(C(=Nc2cccc(F)c2)c2ccc(C(=O)OC)cc2)CC1` [Compound 32, 4-[(4-ethyl-1-piperazinyl)[(3-fluorophenyl)imino]methyl]-benzoic acid methyl ester], the Ki is over 10000 nM in assay [1] and 259 nM in assay [3]. Also, the inhibition at 25 µM in assay [2] stood at 97%.

As for `CCCN1CCN(C(=Nc2ccccc2Cl)c2ccc(C(=O)OC)cc2)CC1` [Compound 34, 4-[[(2-chlorophenyl)imino](4-propyl-1-piperazinyl)methyl]-benzoic acid methyl ester], the inhibition constant (Ki) was 2070 nM in assay [1] and 87.3 nM in assay [3]. Also, in assay [2], the inhibition at 25 µM was 90%.

With `CCCN(CCC)C(=O)c1ccc(C(=Nc2cc(Cl)cc(Cl)c2)N2CCN(CC)CC2)cc1` [Compound 12, 4-[[(3,5-dichlorophenyl)imino](4-ethyl-1-piperazinyl)methyl]-N,N-dipropyl-benzamide], the Ki is over 10000 nM in assay [1] (setting [4]) and 674 nM in assay [3] (setting [5]). Further, in assay [2], the inhibition at 25 µM turned out to be 98%.

With `CCN1CCN(C(=Nc2cccc(Cl)c2)c2ccc(C(=O)OC)cc2)CC1` [Compound 29, 4-[[(3-chlorophenyl)imino](4-ethyl-1-piperazinyl)methyl]-benzoic acid methyl ester], the inhibition constant Ki was over 10000 nM in assay [1] (setting [4]) and 283 nM in assay [3] (setting [5]). For the same compound, in assay [2], the inhibition at 25 µM came out at 97%.

With `CCCN(CCC)C(=O)c1ccc(C(=Nc2ccccc2Cl)N2CCN(CC)CC2)cc1` [Compound 7, 4-[[(2-chlorophenyl)imino](4-ethyl-1-piperazinyl)methyl]-N,N-dipropyl-benzamide], the Ki in assay [1] (setting [4]) worked out at 3930 nM; in assay [3] (setting [5]) it was 292 nM. For the same compound, the inhibition at 25 µM in assay [2] amounted to 97%.

For the compound `CCN1CCN(C(=Nc2ccccc2OC)c2ccc(C(=O)OC)cc2)CC1` [Compound 48, 4-[(4-ethyl-1-piperazinyl)[(2-methoxyphenyl)imino]methyl]-benzoic acid methyl ester], the inhibition at 25 µM in assay [2] is 60%.

Turning to `CCN1CCN(C(=Nc2cccc(Br)c2)c2ccc(C(=O)OC)cc2)CC1` [Compound 30, 4-[[(3-bromophenyl)imino](4-ethyl-1-piperazinyl)methyl]-benzoic acid methyl ester], the Ki in assay [1] (setting [4]) is over 10000 nM; in assay [3] (setting [5]) it was 638 nM. Moreover, the inhibition at 25 µM in assay [2] came to 99%.

As for `CCCN1CCN(C(=Nc2cccc(Cl)c2)c2ccc(C(=O)N(CC)CC)cc2)CC1` [Compound 14, 4-[[(3-chlorophenyl)imino](4-propyl-1-piperazinyl)methyl]-N,N-diethyl-benzamide], the Ki turned out to be 9530 nM in assay [1] and 177 nM in assay [3]. In addition, in assay [2], the inhibition at 25 µM came out at 101%.

For “4-[[(2-chlorophenyl)imino](4-ethyl-1-piperazinyl)methyl]-benzoic acid methyl ester [Compound 31]”, the figures for the Ki in assay [1] (setting [4]) and in assay [3] (setting [5]) were over 10000 nM and 222 nM, respectively. Moreover, the “δ-Opioid Receptor Binding (% Inhibition), % I @ 25 μM” value in assay [2] was found to be 100%.

On to `CCN1CCN(C(=Nc2cc(Cl)cc(Cl)c2)c2ccc(C(=O)N(CC)CC)cc2)CC1` [Compound 13, 4-[[(3,5-dichlorophenyl)imino](4-ethyl-1-piperazinyl)methyl]-N,N-diethyl-benzamide], for which the inhibition constant (Ki) in assay [1] (setting [4]) was over 10000 nM; in assay [3] (setting [5]), 277 nM. Further, the inhibition at 25 µM in assay [2] stood at 100%.

Take `CCN1CCN(C(=Nc2cccc(F)c2)c2ccc(C(=O)OC)cc2)CC1` [Compound 33, 4-[(4-ethyl-1-piperazinyl)[(3-fluorophenyl)imino]methyl]-benzoic acid methyl ester]: in assay [2], the “δ-Opioid Receptor Binding (% Inhibition), % I @ 25 μM” value came out at 100%.

Take `CCN1CCN(C(=Nc2cccc(F)c2)c2ccc(C(=O)N(CC)CC)cc2)CC1` [Compound 9, N,N-diethyl-4-[(4-ethyl-1-piperazinyl)[(3-fluorophenyl)imino]methyl]-benzamide]: the Ki is over 10000 nM in assay [1] and 58.5 nM in assay [3]. For the same compound, the inhibition at 25 µM in assay [2] turned out to be 97%.
